# Read-outs that look alike come from different tables or passages of the source. Bridge positions count the residues as written; N and C are the ends. Ends that are not written are not given here. Peptide text beside a SMILES is read from it. * marks the point of attachment. FITC = O=C1OC2(c3ccc(O)cc3Oc3cc(O)ccc32)c2ccc(NC(=S)*)cc21; Ahx = NCCCCCC(=O)O
# T1: peptide-P1 (synthetic construct, disulfide 1-9 (inferred))
# T1 chain: {FITC-Ahx}-CKKNSPTLC
# How the values were obtained:
# [1] = system: GPR55-silenced HeLa cells; test: LPI-induced ERK1/2 and p38 phosphorylation in shGPR55-HeLa clones (Western blot); assay type: cell-based, human; details: 10 µM soybean LPI, or 1 µM ionomycin 5 min
# Experimental: For stable interference of GPR55, HeLa cells were plated at 1.5 × 10^5 cells/well in six-well plates in growth medium without antibiotics, and 24 h later, the cells were transfected with 1.7 µg/well OmicsLink short hairpin (sh)RNA expression clone CSHCTR001-CU6 (shCTRL) or clone HSH022476-3-CU6 (shGPR55) from GeneCopoeia (Rockville, MD, USA), using Lipofectamine 2000, according the manufacturer instructions. Forty-eight hours after transfection, HeLa clones stably expressing shRNAs were selected in growth medium containing 0.3 µg/mL puromycin. The efficiency of interference was monitored by real-time PCR using the primers listed in the Additional file 1: Table S1. HPRT1 was followed as a housekeeping gene.
# Twenty-four hours after transfection (HEK293T, HeLa cells or clones) or 72 h after interference (RAW264.7 cells), the cells were washed twice with HBSS^++, serum deprived (HEK293T cells for 4 h in DMEM; HeLa cells and clones for 2 h in MEM plus 2 mM glutamine and 25 mM HEPES; RAW264.7 cells for 2 h in DMEM), washed once again with HBSS^++, incubated in stimulation buffer (HBSS^++ with 10 mM HEPES, 0.4% faf-BSA for HEK293T cells; HBSS^++ with 25 mM HEPES and 0.01% faf-BSA for HeLa cells, clones, and RAW264.7 cells) in the absence or presence of stimuli, at 37 °C for the indicated times. Incubations were terminated by washing the cells twice with cold HBSS^++, and the analyses were performed as reported below.
# Cell lysates were obtained by scraping the cells into phospho-lysis buffer: 50 mM Tris–HCl, pH 7.5, 100 mM NaCl, 5 mM EDTA, 1% Triton X-100, 50 mM NaF, 40 mM β-glycerophosphate, 200 µM sodium orthovanadate, plus protease and phosphatase inhibitors (Roche). […]
# Protein lysates were subjected to SDS-PAGE, and after electrophoresis, the proteins were transferred to a nitrocellulose membrane (PerkinElmer Life Science, Boston, MA, USA). […] The membranes were then washed twice with T-TBS and once with TBS for 5 min, and the signals were detected by ECL (Amersham Pharmacia, Piscataway, NJ, USA). […]
# human GPR55 [2] = details: ref [38]; read-out: affinity towards human GPR55; cited from earlier work
# [3] = molecular target: peptide-P1 (synthetic construct); details: cited from earlier work
# human GPR55 [4] = details: ref [38]; cited from earlier work
# Excerpt: GPR55 is overexpressed in several tumour cells, with GPR55 expression shown to correlate with tumour aggressiveness and GPR55 activation to promote cancer-cell proliferation both in cell culture and in xenografts in mice. Therefore, we previously attempted to identify peptides that bind to human GPR55, for innovative targeting of GPR55 for potential therapeutic and/or diagnostic applications. Osteoclasts are also among the cells with the highest expression of GPR55 [9], and as GPR55 is involved in their differentiation, its targeting might be instrument ...
# RAW264.7 cells [5] = test: RANKL-induced transcription of osteoclastogenesis markers in RAW264.7 cells (real-time PCR); assay type: cell-based, murine; details: 150 nM (0.2 µg/mL) peptide, 15 ng/mL RANKL, 72 h
# Experimental: Total RNA was extracted using RNeasy isolation kits, cDNAs were obtained using QuantiTect Reverse Transcription kits, and real-time PCRs were performed with QuantiTect SYBR Green PCR kits (all from Qiagen, Hilden, Germany), according to the manufacturer instructions. The primers used for the real-time PCRs and their annealing temperatures are listed in the Additional file 1: Table S1. Human hypoxanthine phosphoribosyltransferase 1 (HPRT1) or murine β2-microglobulin were followed as housekeeping genes. The real-time PCR programme consisted of an initial 15 min at 95 °C, and then 45 cycles as follows: 94 °C for 15 s, annealing temperature of each primer for 30 s, and 72 °C for 30 s. The real-time PCR machine used was a LightCycler 480 Instrument II (Roche, Indianapolis, IN, USA).
# (§1) For transient interference of Gpr55, RAW264.7 cells were plated at 6 × 10^5 cells/well in six-well plates in growth medium without antibiotics. Twenty-four hours later, the cells were transfected with 250 pmol/well non-targeting small-interfering (si)RNAs (si-NT; siGENOME siRNA Pool #2; D-001206-14; Dharmacon, Chicago, IL, USA) or Gpr55-specific siRNAs (si-GPR55; siGENOME mouse GPR55 SMART pool; M-043590-01; Dharmacon) using Lipofectamine LTX and Plus Reagent, according to the manufacturer instructions. Twenty-four hours later, the cells were plated for the different assays or for RNA extraction. The efficiency of interference was monitored by real-time PCR after 72 h of interference, using the primers listed in the Additional file 1: Table S1. β2-microglobulin was followed as a housekeeping gene.
# For the osteoclastogenesis in-vitro assay, RAW264.7 cells were plated in differentiation medium (α-MEM with 10% heat-inactivated FBS, 2 mM L-glutamine, 100 U/mL penicillin, and 100 ug/mL streptomycin) at a density of 5 × 10^3 cells/well in 24-well plates on coverslips for morphological analysis, or at 2 × 10^4 cells/well in six-well plates for RNA extraction. Twenty-four hours later and every 48 h, the medium was replaced and the cells were treated with 15–30 ng/mL RANKL with DMSO and/or PBS as carriers, or with GPR55 antagonists/ agonists (0.5 µM ML-191, 30 µM O1918, 0.5 µM CBD, 0.5 μM CID16020046 1 µM soybean LPI, 1 μM ML-184), or with the peptides (150 nM peptide-P1; or the irrelevant peptide, Irr_P). Twenty-four hours after the last addition, the cells were fixed with 4% paraformaldehyde for morphological analyses or harvested for RNA extraction (see above).
# ssGPR55-K80A = test: GPR55-internalisation assay, K80A mutant (FACS); assay type: cell-based, human; details: data not shown
# Excerpt: The construct of haemagglutinin (HA)-tagged human GPR55 in pcDNA3 (HA-GPR55) was a gift from Prof. K. Mackie, Indiana University, Bloomington, IN, USA [39], while the construct ss-3 × HA-GPR55 in pcDNA3.1 (ssGPR55) with a triple HA tag at the N-terminus and an optimised signal sequence (ss, derived from amino acids 1–33 of the human growth hormone: […]) for efficient surface expression was from Prof. A. Irving, Dundee University, UK [40]. For both constructs, mutations were introduced by site-directed mutagenesis using QuickChange kits (Stratagene, La Jolla, CA, USA), according to the manufacturer instructions. The primers for the K80A mutation were 5′-[…]-3′ and 5′-[…]-3′ (Tm, 70.6 °C), and for Q87A were 5′-[…]-3′ and 5′-[…]-3′ (Tm, 73.1 °C).
# HeLa cells were plated at 1.5 × 10^5 cells/well in six-well plates in their growth medium without antibiotics. […]
# For the GPR55-internalisation assay, after stimulation, the HeLa cells were washed twice with cold HBSS^++, stained while adhered with the monoclonal anti-HA antibody (1:1000) in PBS plus 3% BSA for 1 h on ice, washed three times with cold PBS, incubated with the Alexa488-tagged anti-mouse antibody (1:800) in PBS plus 3% BSA for 45 min on ice. […] The collected cells were centrifuged at 300×g, suspended in PBS plus 3% BSA, and analysed by FACS.
# RAW264.7 cells [6] = test: Osteoclast syncytium formation (nuclei/cell); assay type: cell-based, murine; details: 150 nM (0.2 µg/mL) peptide, 72 h RANKL
# Experimental: as §1
# For the evaluation of osteoclast syncytium formation, the nuclei of multinucleated cells were counted in a blinded manner using a 63 × objective, moving across the coverslip in the vertical and horizontal directions.
# For the osteoclastogenesis in-vitro assay, RAW264.7 cells were plated in differentiation medium (α-MEM with 10% heat-inactivated FBS, 2 mM L-glutamine, 100 U/mL penicillin, and 100 ug/mL streptomycin) at a density of 5 × 10^3 cells/well in 24-well plates on coverslips for morphological analysis, or at 2 × 10^4 cells/well in six-well plates for RNA extraction. […]
# [7] = system: EHEB and DeFew cells (two human B-lymphoblastoid cell lines); details: ref [38], cited from earlier work
# murine GPR55 = molecular target: T2, murine GPR55 (Mus musculus, UniProt Q3UJF0); test: Peptide binding to intact RAW264.7 cells (FACS); details: FITC-Scr; si-GPR55 + siGLO relative to si-NT + siGLO; 40 µg/mL, 15 min, 37 °C
# T2 construct: endogenous in cells; host or cells: RAW264.7 mouse macrophages (wild-type, or treated with si-NT / si-GPR55 siRNAs)
# Experimental: Wild-type or 48-h-interfered RAW264.7 cells were plated at a density of 1.2 × 10^6 cells/well in six-well plates, and the following day they were used for on-plate-binding assays, or for RNA extraction. Before peptide addition, the cells were washed twice with HBSS^++, and then incubated without or with 40 µg/mL FITC-P1 or FITC-Scr for the indicated times at 37 °C in HBSS^++ plus 0.01% faf-BSA. The incubations were stopped by three washes with PBS, detached by scraping with PBS plus 2 mM EDTA, and then suspended in PBS plus 3% BSA. Fluorescence intensity was evaluated by FACS, and reported as means of cell-associated fluorescence increases compared to cells incubated in absence of peptides.
# To evaluate peptide-P1 specificity towards murine GPR55, RAW264.7 cells were Gpr55-interfered as above, but the duplexes were previously mixed with the double pmol amount of siGLO Red transfection indicator (Dharmacon). […] FITC-fluorescence intensity was evaluated by FACS, and reported as means of cell-associated fluorescence increases compared to cells incubated in absence of peptides.
# peptide-P1 = molecular target: T1, peptide-P1; test: FACS binding of FITC-peptide to RAW264.7 cells
# Chain of GPR55 (Q9Y2T6 whole entry): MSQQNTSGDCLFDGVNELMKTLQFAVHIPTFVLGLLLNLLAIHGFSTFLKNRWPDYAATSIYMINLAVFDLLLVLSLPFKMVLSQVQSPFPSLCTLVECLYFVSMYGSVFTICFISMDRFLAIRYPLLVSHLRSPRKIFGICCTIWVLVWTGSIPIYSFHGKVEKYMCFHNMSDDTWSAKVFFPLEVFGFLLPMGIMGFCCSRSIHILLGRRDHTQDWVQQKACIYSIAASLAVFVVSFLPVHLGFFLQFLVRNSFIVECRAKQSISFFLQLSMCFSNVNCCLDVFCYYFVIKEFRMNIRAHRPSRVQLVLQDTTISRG
molecule,measurement,setting,value
C[C@H](CCC(=O)O)C[C@H](C)C[C@H](C)C(=O)/C=C(\O)[C@H](C)C[C@H](C)C/C=C/[C@@H](C)[C@@H](O)[C@@H](C)[C@@H](O)C[C@@H]1CC[C@@](C)([C@H]2CC[C@@](C)([C@@H](C)O)O2)O1 [ionomycin],ERK1/2 and p38 activation,[1],still activated these pathways
CC(C)C[C@@H]1NC(=O)[C@H]([C@@H](C)O)NC(=O)[C@@H]2CCCN2C(=O)[C@H](CO)NC(=O)[C@H](CC(N)=O)NC(=O)[C@H](CCCCN)NC(=O)[C@H](CCCCN)NC(=O)[C@@H](NC(=O)CCCCCNC(=S)Nc2ccc3c(c2)C(=O)OC32c3ccc(O)cc3Oc3cc(O)ccc32)CSSC[C@@H](C(=O)O)NC1=O [FITC-P1] ({FITC-Ahx}-CKKNSPTLC-OH; disulfide 1-9; N-terminus and C-terminus assumed),Kd,human GPR55 [2],20 µM
GPR55 (from UniProt Q9Y2T6),Kd,[3],20 µM
CKKNSPTLC (disulfide 1-9 (inferred)) [peptide-P1],competition with LPI action,human GPR55 [4],did not compete with LPI action
same,human GPR55 internalisation,human GPR55 [4],inducing human GPR55 internalisation in a β-arrestin–independent manner
same,inhibition of osteoclast maturation (five differentiation markers),RAW264.7 cells [5],significant inhibition of osteoclast maturation
same,reduction of RANKL-induced Cathepsin-k mRNA by peptide,RAW264.7 cells [5]; three independent experiments,40%
same,reduction of RANKL-induced Ctr mRNA by peptide,RAW264.7 cells [5]; three independent experiments,35%
same,reduction of RANKL-induced Mmp-9 mRNA by peptide,RAW264.7 cells [5]; three independent experiments,50%
same,reduction of RANKL-induced Nfatc1 mRNA by peptide,RAW264.7 cells [5]; three independent experiments,30%
same,reduction of RANKL-induced Trap mRNA by peptide,RAW264.7 cells [5]; three independent experiments,35%
same,regulation of wild-type and GPR55-K80A mutant internalisation,ssGPR55-K80A,comparable regulation of both wild-type and GPR55-K80A mutant internalisation
same,"effect on RANKL-induced osteoclast syncytium formation, peptide",RAW264.7 cells [6],did not have any significant effects
same,inhibition of GPR55-dependent proliferation,[7],inhibited GPR55-dependent proliferation of two human B-lymphoblastoid cell lines
same,inhibition of GPR55-dependent proliferation,[7]; listed as Peptide-P1,inhibit GPR55-dependent proliferation of EHEB and DeFew cells
"KCLTSNCPK (disulfide 2-7 (inferred)) [FITC-Scr, FITC-conjugated scrambled (…) peptide]",effect of Gpr55 interference on binding,murine GPR55,not significantly affected by Gpr55 interference
GPR55 (protein) MSQPERDNCSFDSVDKLTRTLQLAVHIPTFLLGLVLNLLAIRGFSAFLKKRKLDYIATSIYMINLAVFDLLLVLSLPFKMVLPQVESPLPSFCTLVECLYFISMYGSVFTICFISLDRFLAIQYPILASHLRSPRKTFGICCIIWMLVWIGSIPIYTFHREVERYKCFHNMSDVTWSASVFFPLEIFGFLLPMGIMGFCSYRSIHILLRRPDSTEDWVQQRDTKGWVQKRACIWTIATNLVIFVVSFLPVHLGFFLQYLVRNRFILDCRMKQGISLFLQLSLCFSNINCCLDVFCYYFVIKEFRMRIKAHRPSTIKLVNQDTMVSRG,Kd,peptide-P1,22.7 µM

# Source: paper PMC8073907, “Peptide targeting of lysophosphatidylinositol-sensing GPR55 for osteoclastogenesis tuning” (Cell Communication and Signaling : CCS, 2021)
